Our source for the IC50 values is patent publication US8017612B2, “Piperazine compound and use thereof as a HCV polymerase inhibitor” (priority 2006, dated 2011).

A value given as a limit tells only on which side of the number the result lay.

Experiment [1] addresses T1, HCV polymerase (NS5B) type 1b (Hepatitis C virus genotype 1b, UniProt P26663).
T1 construct: a region encoding NS5B (J Virol 1991 March, 65(3), 1105-13, 544 amino acids after deletion of 47 amino acids on the C-terminal); 6xHis (C); made in house; host or cells: Escherichia coli
The experiment in a line: Assay of enzyme (HCV polymerase) inhibitory activity, type 1b enzyme. Type of experiment: biochemical, HCV BK strain (type 1b). Summed up:
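Polymerase activity was followed as radiolabelled UTP incorporation by E. coli-expressed, His-tagged NS5B of HCV type 1b lacking its last 47 residues. Conditions: 2 μM UTP, 50 μM other NTPs, Mg2+ buffer at pH 7.5, 25 °C for 60 min. Inhibition relative to compound-free reactions gave IC50.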

In experiment [2] the target is T2, HCV polymerase (NS5B) type 1a (Hepatitis C virus genotype 1a, UniProt P26664).
T2 construct: made in house; host or cells: Escherichia coli (by the 'similar method' of the 1b enzyme)
The experiment in a line: Assay of enzyme (HCV polymerase) inhibitory activity, type 1a enzyme. Type of experiment: biochemical, HCV type 1a (cloned from the blood of patients). Summed up:
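IC50 values derive from radioactivity of newly synthesized RNA with versus without test compound. The enzyme was C-terminally truncated type 1a NS5B, 1.5 μg/ml, run 60 min at 25° C with 3H-UTP-labelled nucleotides.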

The mark [3] stands for this setting: HCV polymerase inhibitory activity (IC50), 1b, type 1b enzyme 0.5 μg/ml, 25° C., 60 min.
Setting [4] is: HCV polymerase inhibitory activity (IC50), 1a, type 1a enzyme 1.5 μg/ml, 25° C., 60 min.

The IC50 is the concentration that gives 50% inhibition. A lower IC50 goes with higher potency. With `CCC(F)(F)c1ccc(CNC(=O)[C@H]2CN(c3nc4nc[nH]c(=O)c4s3)CCN2S(=O)(=O)c2ccc(OC(F)(F)F)cc2)cc1` [Example 633, (R)-4-(7-oxo-6,7-dihydro-thiazolo[4,5-d]pyrimidin-2-yl)-1-(4-trifluoromethoxy-benzenesulfonyl)-piperazine-2-carboxylic acid 4-(1,1-difluoro-propyl)-benzylamide], the IC50 in experiment [1] (setting [3]) and in experiment [2] (setting [4]) was under 100 nM each time.
Regarding `CC(=O)N1CCN(S(=O)(=O)c2ccc(CC(=O)O)s2)[C@@H](C(=O)NCc2ccc(C(C)C)cc2)C1` [Example 289, {5-[(R)-4-acetyl-2-(4-isopropyl-benzylcarbamoyl)-piperazine-1-sulfonyl]-thiophen-2-yl}-acetic acid], the IC50 in experiment [1] (setting [3]) and in experiment [2] (setting [4]) was over 1000 nM each time.
`CC(=O)N1CCN(S(=O)(=O)c2ccc(OCC(=O)O)cc2)[C@@H](C(=O)NCc2ccc(C(C)C)cc2)C1` [Example 249, {4-[(R)-4-acetyl-2-(4-isopropyl-benzylcarbamoyl)-piperazine-1-sulfonyl]-phenoxy}-acetic acid]: the IC50 in experiment [1] (setting [3]) and in experiment [2] (setting [4]) was over 1000 nM throughout.
Regarding `CCC(F)(F)c1ccc(CNC(=O)[C@H]2CN(C(=O)C(C)(C)C)CCN2S(=O)(=O)c2ccc(OC(F)(F)F)cc2)cc1` [Example 611, (R)-4-(2,2-dimethyl-propionyl)-1-(4-trifluoromethoxy-benzenesulfonyl)-piperazine-2-carboxylic acid 4-(1,1-difluoro-propyl)-benzylamide], the IC50 in experiment [1] (setting [3]) and in experiment [2] (setting [4]) was over 1000 nM in each case.
As to `COCc1ccc(CNC(=O)[C@H]2CN(c3cnc4cncnc4n3)CCN2S(=O)(=O)c2ccc(OC(F)(F)F)cc2)cc1` [Example 657, (R)-4-pteridin-7-yl-1-(4-trifluoromethoxy-benzenesulfonyl)-piperazine-2-carboxylic acid 4-methoxymethyl-benzylamide], the IC50 in experiment [1] (setting [3]) and in experiment [2] (setting [4]) was under 100 nM in each case.
With `CC(=O)N1CCN(S(=O)(=O)c2ccc(CC(C)(C)C)cc2)[C@@H](C(=O)NCc2ccc(C(C)C)cc2)C1` [Example 237, (R)-4-acetyl-1-[4-(2,2-dimethyl-propyl)-benzenesulfonyl]-piperazine-2-carboxylic acid 4-isopropyl-benzylamide], the IC50 in experiment [1] (setting [3]) and in experiment [2] (setting [4]) was under 100 nM each time.
For the compound `CN(C)c1ccc(CNC(=O)C2CN(C(=O)Cc3cccnc3)CCN2S(=O)(=O)c2ccc(I)cc2)cc1` (centres unmarked) [Example 154, 1-(4-iodo-benzenesulfonyl)-4-(2-pyridin-3-yl-acetyl)-piperazine-2-carboxylic acid 4-dimethylamino-benzylamide], the IC50 in experiment [1] (setting [3]) and in experiment [2] (setting [4]) was 100 to 1000 nM throughout.
On to `O=C(NCc1ccc(OC(F)(F)F)cc1)[C@H]1CN(c2nc3nc(C4(CO)CC4)ncc3s2)CCN1S(=O)(=O)c1ccc(OC(F)(F)F)cc1` [Example 1077, (R)-4-[5-(1-hydroxymethyl-cyclopropyl)-thiazolo[4,5-d]pyrimidin-2-yl]-1-(4-trifluoromethoxy-benzenesulfonyl)-piperazine-2-carboxylic acid 4-trifluoromethoxy-benzylamide], for which the IC50 was under 100 nM in experiment [1] (HCV polymerase inhibitory activity IC50, 1b, type 1b enzyme) and under 100 nM in experiment [2] (HCV polymerase inhibitory activity IC50, 1a, type 1a enzyme).
Take `CCC(F)(F)c1ccc(CNC(=O)[C@H]2CN(C(=O)Cn3nnc(C)n3)CCN2S(=O)(=O)c2ccc(OC(F)(F)F)cc2)cc1` [Example 468, (R)-4-[2-(5-methyl-tetrazol-2-yl)-acetyl]-1-(4-trifluoromethoxy-benzenesulfonyl)-piperazine-2-carboxylic acid 4-(1,1-difluoro-propyl)-benzylamide]: the IC50 in experiment [1] (setting [3]) and in experiment [2] (setting [4]) was under 100 nM each time.
As for `CCC(F)(F)c1ccc(CNC(=O)[C@H]2CN(c3cnc4cnccc4n3)CCN2S(=O)(=O)c2ccc(OC(F)(F)F)cc2)cc1` [Example 648, (R)-4-pyrido[3,4-b]pyrazin-2-yl-1-(4-trifluoromethoxy-benzenesulfonyl)-piperazine-2-carboxylic acid 4-(1,1-difluoro-propyl)-benzylamide], the IC50 in experiment [1] (setting [3]) and in experiment [2] (setting [4]) was under 100 nM each time.
